# Data: ChEMBL document CHEMBL1137149, “Bile acid conjugates of a nonsteroidal glucocorticoid receptor modulator” (Bioorg Med Chem Lett, 2004)
# How the values were obtained:
# Glucocorticoid receptor [1] = target: T1, Glucocorticoid receptor (Homo sapiens, UniProt P04150)
# T1 sequence (P04150 whole entry): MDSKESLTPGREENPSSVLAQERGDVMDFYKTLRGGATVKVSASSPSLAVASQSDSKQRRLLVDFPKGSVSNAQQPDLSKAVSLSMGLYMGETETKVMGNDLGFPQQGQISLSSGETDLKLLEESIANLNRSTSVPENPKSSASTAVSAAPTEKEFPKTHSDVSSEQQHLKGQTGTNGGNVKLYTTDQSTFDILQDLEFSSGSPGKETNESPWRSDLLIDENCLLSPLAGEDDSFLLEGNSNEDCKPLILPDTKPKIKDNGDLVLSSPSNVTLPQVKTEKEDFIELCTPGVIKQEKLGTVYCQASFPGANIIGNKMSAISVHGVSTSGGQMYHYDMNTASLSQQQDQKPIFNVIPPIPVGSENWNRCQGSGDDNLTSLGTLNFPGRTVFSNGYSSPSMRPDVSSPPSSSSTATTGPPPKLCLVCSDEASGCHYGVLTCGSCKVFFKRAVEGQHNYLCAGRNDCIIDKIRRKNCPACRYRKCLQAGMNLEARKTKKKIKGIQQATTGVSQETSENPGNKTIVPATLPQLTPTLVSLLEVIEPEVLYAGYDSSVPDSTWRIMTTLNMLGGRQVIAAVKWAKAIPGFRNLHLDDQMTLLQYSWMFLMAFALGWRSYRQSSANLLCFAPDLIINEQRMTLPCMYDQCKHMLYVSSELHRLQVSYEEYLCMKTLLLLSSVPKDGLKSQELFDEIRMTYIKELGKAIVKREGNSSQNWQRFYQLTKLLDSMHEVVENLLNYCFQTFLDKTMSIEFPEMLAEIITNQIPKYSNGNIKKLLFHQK
# Glucocorticoid receptor [2] = target: T1, Glucocorticoid receptor; format: functional
# Description: Inhibition of glucocorticoid receptor Dexamethasone response in reporter gene assay
# Glucocorticoid receptor [3] = target: T2, Glucocorticoid receptor (Rattus norvegicus, UniProt P06536); format: functional, cell-based; conditions: hepatocyte
# T2 sequence (P06536 whole entry): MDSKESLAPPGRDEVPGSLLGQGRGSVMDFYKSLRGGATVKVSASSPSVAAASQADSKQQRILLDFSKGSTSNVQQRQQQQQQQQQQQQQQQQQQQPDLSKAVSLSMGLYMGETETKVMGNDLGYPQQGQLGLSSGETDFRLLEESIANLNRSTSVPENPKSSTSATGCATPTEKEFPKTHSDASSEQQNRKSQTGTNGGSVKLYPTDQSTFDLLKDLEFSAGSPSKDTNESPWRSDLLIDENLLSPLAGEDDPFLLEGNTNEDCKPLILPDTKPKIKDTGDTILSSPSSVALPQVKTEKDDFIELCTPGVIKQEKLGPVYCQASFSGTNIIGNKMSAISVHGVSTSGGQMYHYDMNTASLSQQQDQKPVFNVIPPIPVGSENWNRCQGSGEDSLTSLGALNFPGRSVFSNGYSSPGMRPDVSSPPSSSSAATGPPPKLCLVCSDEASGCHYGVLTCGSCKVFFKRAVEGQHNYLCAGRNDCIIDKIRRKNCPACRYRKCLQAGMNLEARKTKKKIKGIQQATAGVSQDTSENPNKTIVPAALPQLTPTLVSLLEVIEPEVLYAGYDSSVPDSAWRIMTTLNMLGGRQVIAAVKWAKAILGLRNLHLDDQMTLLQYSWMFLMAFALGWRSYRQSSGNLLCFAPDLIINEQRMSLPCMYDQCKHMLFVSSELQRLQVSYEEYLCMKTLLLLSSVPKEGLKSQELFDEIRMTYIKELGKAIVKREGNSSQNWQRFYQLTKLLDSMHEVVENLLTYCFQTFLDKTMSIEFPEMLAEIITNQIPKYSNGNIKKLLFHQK
# [4] = target: T3, Hepatic sodium/bile acid cotransporter (Rattus norvegicus, UniProt P26435)
# T3 sequence (P26435 whole entry): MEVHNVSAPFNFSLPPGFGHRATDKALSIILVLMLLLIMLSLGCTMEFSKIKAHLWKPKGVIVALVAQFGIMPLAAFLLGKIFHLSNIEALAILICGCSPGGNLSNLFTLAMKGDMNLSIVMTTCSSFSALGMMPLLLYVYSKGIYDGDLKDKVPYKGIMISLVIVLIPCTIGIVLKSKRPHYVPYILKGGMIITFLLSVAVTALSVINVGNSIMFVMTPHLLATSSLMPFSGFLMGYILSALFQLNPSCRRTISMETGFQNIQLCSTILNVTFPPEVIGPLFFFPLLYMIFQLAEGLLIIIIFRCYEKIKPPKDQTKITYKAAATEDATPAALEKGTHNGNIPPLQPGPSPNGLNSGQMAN
Compound,IC50 (Glucocorticoid receptor [1]),IC50 (Glucocorticoid receptor [2]),IC50 (Glucocorticoid receptor [3]),IC50 [4]
Cc1c(NS(C)(=O)=O)cccc1N(Cc1ccc(CCCC(=O)NCCO[C@@H]2CC[C@]3(C)[C@H](C2)C[C@H](O)[C@@H]2[C@@H]3C[C@@H](O)[C@]3(C)[C@H]2CC[C@H]3[C@@H](C)CCC(=O)O)cc1)Cc1ccc(Oc2ccccc2)cc1,260 nM,–,–,–
Cc1c(NS(C)(=O)=O)cccc1N(Cc1ccccc1)Cc1ccc(Oc2cccc(CCCC(=O)NCCO[C@@H]3CC[C@]4(C)[C@H](C3)C[C@H](O)[C@@H]3[C@@H]4C[C@@H](O)[C@]4(C)[C@H]3CC[C@H]4[C@@H](C)CCC(=O)O)c2)cc1,62 nM,390 nM,–,–
Cc1c(NS(C)(=O)=O)cccc1N(Cc1ccccc1)Cc1ccc(Oc2ccc(CCC(=O)NCCO[C@@H]3CC[C@]4(C)[C@H](C3)C[C@H](O)[C@@H]3[C@@H]4C[C@@H](O)[C@]4(C)[C@H]3CC[C@H]4[C@@H](C)CCC(=O)O)cc2)cc1,17 nM,450 nM,Not Active,4 nM
Cc1c(NS(C)(=O)=O)cccc1N(Cc1ccc(Oc2ccccc2)cc1)Cc1cccc(CCCC(=O)NCCO[C@H]2CC[C@@]3(C)[C@@H](C2)C[C@@H](O)[C@@H]2[C@@H]3C[C@H](O)[C@]3(C)[C@@H]([C@H](C)CCC(=O)O)CC[C@@H]23)c1,93 nM,–,–,–
Cc1c(NS(C)(=O)=O)cccc1N(Cc1ccc(Oc2ccc(CCC(=O)NCCO[C@@H]3CC[C@]4(C)[C@H](C3)C[C@H](O)[C@@H]3[C@@H]4C[C@@H](O)[C@]4(C)[C@H]3CC[C@H]4[C@@H](C)CCC(=O)O)cc2)cc1)Cc1ccc(F)cc1F,270 nM,–,–,–
Cc1c(NS(C)(=O)=O)cccc1N(Cc1ccccc1)Cc1ccc(Oc2ccc(CCCC(=O)NCCO[C@H]3CC[C@@]4(C)[C@@H](C3)C[C@@H](O)[C@@H]3[C@@H]4C[C@H](O)[C@]4(C)[C@@H]([C@H](C)CCC(=O)O)CC[C@@H]34)cc2)cc1,50 nM,–,–,–
Cc1c(NS(C)(=O)=O)cccc1N(Cc1ccccc1)Cc1ccc(CCC(=O)NCCO[C@H]2CC[C@@]3(C)[C@@H](C2)C[C@@H](O)[C@@H]2[C@@H]3C[C@H](O)[C@]3(C)[C@@H]([C@H](C)CCC(=O)O)CC[C@@H]23)cc1,560 nM,310 nM,–,–
Cc1c(NS(C)(=O)=O)cccc1N(Cc1ccccc1)Cc1ccc(Oc2cccc(OCC(=O)NCCO[C@H]3CC[C@@]4(C)[C@@H](C3)C[C@@H](O)[C@@H]3[C@@H]4C[C@H](O)[C@]4(C)[C@@H]([C@H](C)CCC(=O)O)CC[C@@H]34)c2)cc1,57 nM,590 nM,–,–
